The source of these data is publication PMC11574021, “CEP192 localises mitotic Aurora-A activity by priming its interaction with TPX2” (The EMBO Journal, 2024).

The assay has as its target T1, phosphorylated Aurora-A CAKD (Homo sapiens, UniProt O14965, C290A/C393A).
T1 construct: 10 nM Aurora-A 122–403 C290A C393A phosphorylated protein; His (N, cleaved yes); made in house; host or cells: E. coli B834 (no lambda phosphatase)
T1 sequence (O14965 122-403 C290A/C393A): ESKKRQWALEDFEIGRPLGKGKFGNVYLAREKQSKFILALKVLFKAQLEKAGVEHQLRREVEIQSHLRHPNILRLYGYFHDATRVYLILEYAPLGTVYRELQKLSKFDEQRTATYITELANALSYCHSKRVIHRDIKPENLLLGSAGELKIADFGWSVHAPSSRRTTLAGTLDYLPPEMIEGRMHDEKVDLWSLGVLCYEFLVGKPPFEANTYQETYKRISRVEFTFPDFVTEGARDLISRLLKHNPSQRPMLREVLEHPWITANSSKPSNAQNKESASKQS
Put plainly: ADP-Glo kinase assay, kemptide substrate. It is filed as biochemical. The settings on record: ADP-Glo, phosphorylated Aurora-A CAKD, kemptide; in words. The essentials: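 Reactions started with 10 μM ATP and 100 μM kemptide, 60 min at room temperature, then ADP-Glo luminescence read-out. Control-subtracted signals from three repeats averaged and fitted to sigmoidal curves for IC50 and EC50.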
For orientation: ADP-Glo first removes unused ATP, then detects ADP through luciferase.

For the molecule `COc1cc(Nc2ncc3c(n2)-c2ccc(Cl)cc2C(c2c(F)cccc2OC)=NC3)ccc1C(=O)O` [Alisertib], the “effect on Aurora-A kinase activity” value is on record as “fully inhibited activity”.
